Experimental data: patent US20140377219A1, “HIV INHIBITORS” (New york Blood Center, Inc., priority 2011, published 2014)
Read-outs that look alike come from different tables or passages of the source.

How the values were obtained:
[1] = system: primary HIV-1 isolate 92US657 (subtype B, R5); test: Neutralization assay in PBMC (p24 ELISA); settings: read-out: IC50 (μM) ± S.D., inhibitory activity on infection; 92US657, subtype B, PBMC, R5, primary isolate
Description: PBMCs were isolated from the blood of healthy donors at the New York Blood Center by standard density-gradient centrifugation using Histopaque-1077 (Sigma-Aldrich). The cells were cultured at 37° C. for 2 h. Non-adherent cells were collected and resuspended at 5×10^6 cells/ml in RPMI-1640 medium containing 10% (v/v) fetal bovine serum, 5 μg/ml of phytohemagglutinin, and 100 U/ml of IL-2 (Sigma-Aldrich), followed by incubation at 37° C. for three days.

[2] = system: Panel B env pCAAN5342 clone A2 (SVPB19); type: cell-based; settings: TZM-bl, read-out: IC50 (μM) ± S.D., antiviral activity against HIV-1 envelope pseudoviruses
HIV-1 SF2 = test: Multi-cycle neutralization assay in MT-2 cells; settings: read-out: IC50 (μM) ± S.D., inhibitory activity on infection; SF2, subtype B, MT-2, R5X4, laboratory strain
HIV-1 MN = test: Multi-cycle neutralization assay in MT-2 cells; settings: read-out: IC50 (μM) ± S.D., inhibitory activity on infection; MN, subtype B, MT-2, X4, laboratory strain
Description: In brief, 1×10^4 MT-2 cells were infected with HIV-1 at 100 TCID50 (50% tissue culture infective dose) (0.01MOI) in 200 μl medium in the presence or absence of small molecules at graded concentrations and incubated overnight. The culture supernatants were then removed and replaced with fresh media. On the fourth day post-infection, 100 μl of culture supernatants were collected from each well, mixed with equal volume of 5% Triton X-100 and tested for p24 antigen by sandwich-ELISA. The percent inhibition of p24 production and IC50 values were calculated by the GraphPad Prism software (GraphPad Software Inc.).

[3] = system: pNL4-3 gp41 (36G) V38E, N42S (fusion resistant isolate); type: cell-based, HIV-1; settings: subtype B, MT-2, X4, fusion resistant isolate, read-out: IC50 (μM) ± S.D., inhibitory activity on infection
PBMC = test: Cytotoxicity in PBMC (XTT); type: cell-based
Description: Cytotoxicity of small molecules in MT-2 cells and PBMC was measured by the XTT ((sodium 3′-(1-(phenylamino)-carbonyl)-3,4-tetrazolium-bis(4-methoxy-6-nitro)benzene-sulfonic acid hydrate)) method. Briefly, for MT-2 cells, 100 μl of a small molecule at graded concentrations was added to an equal volume of cells (10^5 cells/ml) in 96-well plates followed by incubation at 37° C. for four days, which ran parallel with the neutralization assay in MT-2 (except medium was added instead of virus). In the case of PBMC, 5×10^5 cells/ml was used and the cytotoxicity was measured after seven days. […] The percentage cytotoxicity and the CC50 values were calculated as described above.

MT-2 cells = test: Cytotoxicity in MT-2 cells (XTT); type: cell-based
Summary of the method: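 XTT viability read-out: MT-2 cells (10^5 cells/ml) incubated with graded compound concentrations four days at 37° C; PBMC at 5×10^5 cells/ml, measured after seven days. CC50 derived from percentage cytotoxicity.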

gp120-CD4 interaction = gp120-CD4 interaction (Human immunodeficiency virus type 1 group M subtype B, UniProt P03375); type: binding; settings: FIG. 7
[4] = system: Panel C env Du156, clone 12 (SVPC3); type: cell-based; settings: TZM-bl, read-out: IC50 (μM) ± S.D., antiviral activity against HIV-1 envelope pseudoviruses
[5] = system: Panel C env ZM-233M.PB6, SVPC9; type: cell-based; settings: TZM-bl, read-out: IC50 (μM) ± S.D., antiviral activity against HIV-1 envelope pseudoviruses
[6] = system: Panel C env CAP-45.2.00.G3, SVPC16; type: cell-based; settings: TZM-bl, read-out: IC50 (μM) ± S.D., antiviral activity against HIV-1 envelope pseudoviruses
CD4 = CD4 (Homo sapiens, UniProt P01730); test: Surface plasmon resonance (SPR), ligand CD4; type: binding; settings: SPR
HIV-1MN gp120 and sCD4 = target: T1, HIV-1MN gp120 and sCD4 (Human immunodeficiency virus type 1 group M subtype B, UniProt P05877); test: biochemical; type: binding; settings: captured ELISA, sCD4 0.25 μg/ml; read-out: IC50 (μM ± SD), interaction HIV-1MN gp120 and sCD4
T1 construct: recombinant gp120 from HIV-1IIIB and HIV-1MN
Description: (§1) The compounds were incubated at graded concentrations with sCD4 (0.25 μg/ml) in the wells of polystyrene plates containing recombinant gp120, which was captured by coating the plates with a sheep anti-gp120 antibody D7324.

HIV-1IIIB gp120 and sCD4 = target: T2, HIV-1IIIB gp120 and sCD4 (Human immunodeficiency virus type 1 group M subtype B, UniProt P03375); test: biochemical; type: binding; settings: captured ELISA, sCD4 0.25 μg/ml; read-out: IC50 (μM ± SD), interaction HIV-1IIIB gp120 and sCD4
T2 construct: recombinant gp120 from HIV-1IIIB and HIV-1MN
Description: as §1

[7] = system: CD4-dependent virus (ADA); type: cell-based; settings: ADA in Cf2Th-CD4+-CCR5+ target cells, FIG. 5; read-out: IC50, inhibition of the CD4-dependent virus
gp120 = gp120 (Human immunodeficiency virus type 1 group M subtype B, UniProt P03375); test: biochemical; type: binding, HIV-1; settings: SPR, ligand gp120
[8] = PBMC, XTT, seven days, read-out: PBMC CC50
[9] = MT-2 cells, XTT, four days, read-out: MT-2 Cells CC50

Structure (SMILES)	IC50 [1] [µM]	IC50 [2] [µM]	IC50 (HIV-1 SF2) [µM]	IC50 (HIV-1 MN) [µM]	IC50 [3] [µM]	CC50 (PBMC; [8]) [µM]	CC50 (MT-2 cells; [9]) [µM]	inhibition of the gp120-CD4 interaction (gp120-CD4 interaction)	IC50 [4] [µM]	CC50 (PBMC) [µM]	IC50 [5] [µM]	IC50 [6] [µM]	further results
Cc1ccc(NC(=O)C(=O)NC(c2nc(C)c(CO)s2)C2CCCCN2)cc1F.Cl (centres unmarked) [Compound 28, N^1-(3-fluoro-4-methylphenyl)-N^2-((5-(hydroxymethyl)-4-methylthiazol-2-yl)(piperidin-2-yl)methyl)oxalamide.HCl]	12.3 ± 1.3	1.5 ± 0.1	38.7 ± 4.5	24.6 ± 4.6	4.6 ± 0.4	~106	> 88	–	–	–	–	–	CC50 (MT-2 cells; MT-2 cells, XTT, four days, listed as NBD-11008, read-out: MT-2 Cells CC50): ~85 µM; % toxicity at that dose (number in parenthesis), MT-2 cells (MT-2 cells; at the dose given as CC50 bound): 30%
Cc1nc(C(NC(=O)C(=O)Nc2ccc(Cl)cc2)C2CCCCN2)sc1CO.Cl (centres unmarked) [Compound 6, N^1-(4-chlorophenyl)-N^2-((5-(hydroxymethyl)-4-methylthiazol-2-yl)(piperidin-2-yl)methyl)oxalamide.HCl]	8.6 ± 0.9	2.3 ± 0.3	5.7 ± 0.9	4 ± 0.9	5.8 ± 0.3	–	–	inhibit gp120-CD4 interaction in a dose dependent manner	4.6 ± 0.13	> 160	5.6 ± 1.3	4.7 ± 0.95	% toxicity at that dose (number in parenthesis), MT-2 cells (MT-2 cells): 40%; CC50 (MT-2 cells): > 108 µM
CC1(C)CC(NC(=O)C(=O)Nc2ccc(Cl)cc2)CC(C)(C)N1 [NBD-556, reference compound]	48 ± 1.65	2.4 ± 0.3	≥ 118	15.9 ± 1.6	11 ± 0.9	961	280	in a dose dependent manner	–	–	4.9 ± 1.13	7.9 ± 0.87	binding to CD4 (CD4): not to CD4; IC50 (HIV-1MN gp120 and sCD4): 5.66 ± 0.8 µM; IC50 (HIV-1IIIB gp120 and sCD4): 2.11 µM; IC50 [7]: 22.6 µM; CC50 (MT-2 cells; MT-2 cells, XTT, four days, listed as 1, read-out: MT-2 Cells CC50): ~150 µM; Rmax (RU) (gp120): 6.99 RU
Cc1nc(C(NC(=O)C(=O)Nc2ccc(Cl)c(F)c2)C2CCCCN2)sc1CCO.Cl (centres unmarked) [Compound 39, N^1-(4-chloro-3-fluorophenyl)-N^2-((5-(2-hydroxyethyl)-4-methylthiazol-2-yl)(piperidin-2-yl)methyl)oxalamide.HCl]	7.1 ± 0.9	0.8 ± 0.3	15.8 ± 1.7	16.7 ± 1.5	3.9 ± 0.3	–	–	–	1.7 ± 0.2	> 81	2.5 ± 0.5	3.4 ± 0.4	% toxicity at that dose (number in parenthesis), PBMC (PBMC): (20%)
